Laboratory results: publication PMC12621175, “Scaffold Fusion and SAR Transfer with a Chemical Language Model Generates Novel Liver X Receptor Modulators” (Journal of Medicinal Chemistry, 2025)
“Also recorded” adds a separate entry of the source.

Key:
[1] = target: T1, FXR (NR1H4) (Homo sapiens, UniProt Q96RI1); assay: Gal4-FXR hybrid reporter gene assay (off-target profiling); type: cell-based; conditions: compared with T0901317
T1 construct: coding for the hinge region, and LBD of the canonical isoform of the respective nuclear receptor; expressed in transfected cells; host or cells: HEK293T
T1 sequence (Q96RI1 262-486 limits assumed): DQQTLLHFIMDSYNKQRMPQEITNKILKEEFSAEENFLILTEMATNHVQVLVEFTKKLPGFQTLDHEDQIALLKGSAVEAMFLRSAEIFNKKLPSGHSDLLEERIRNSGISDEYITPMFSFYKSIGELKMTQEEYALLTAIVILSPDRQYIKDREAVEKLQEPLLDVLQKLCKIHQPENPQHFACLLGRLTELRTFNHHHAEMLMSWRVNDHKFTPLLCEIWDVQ
Description: For the hybrid reporter gene assays, the previously reported Gal4-fusion receptor plasmids pFA-CMV-hRORα-LBD, pFA-CMV-hRORβ-LBD, pFA-CMV-hRORγ-LBD, pFA-CMV-hLXRα-LBD, pFA-CMV-hLXRβ-LBD, pFA-CMV-hFXR-LBD, pFA-CMV-hPXR-LBD, and pFA-CMV-hRXRα-LBD, coding for the hinge region, and LBD of the canonical isoform of the respective nuclear receptor were used. pFR-Luc (Stratagene) was used as the reporter plasmid, and pRL-SV40 (Promega) was used in all assays for the normalization of transfection efficiency and cell growth. pECE-SV40-Gal4-VP16 was a gift from Lea Sistonen (Addgene plasmid #71728). The LXR-responsive reporter ABCA1-pGL3 was used for the full-length reporter gene assay.
The day before transfection, HEK293T cells were seeded in 96-well plates (4 × 10^4 cells/well). Before transfection, the medium was changed to Opti-MEM without any supplements. […] Luminescence was measured with a Spark 10 M luminometer (Tecan Deutschland GmbH). […] EC50/IC50 values and the standard errors thereof were calculated with the mean fold activation values by OriginPro, Version 2025 (OriginLab Corporation, Northampton, MA, USA), fitting a dose–response curve with a variable Hill slope (Levenberg–Marquardt algorithm). […]

[2] = system: HepG2 cells; assay: lipolysis assay after steatosis induction with oleic and palmitic acid (Oil Red O); type: cell-based; conditions: 30 μM, 72 h; HepG2 pretreated 24 h with oleic acid (66.7 μM) and palmitic acid (33.3 μM)
Protocol: HepG2 cells were seeded in collagen-coated 96-well plates at a density of 10^4 cells per well and incubated for 24 h. For the lipolytic mode, the cells were pretreated for additional 24 h with 66.7 μM oleic acid and 33.3 μM palmitic acid in culture medium with 1% bovine serum albumin (BSA). The cells were then treated with DMSO (0.1%) alone or in combination with test compounds in the culture medium. After 72 h, the cells were washed with PBS (2 × 50 μL) and fixed with 10% formalin solution (50 μL) for 15 min. After removal of the fixative, the cells were washed with H2O (2 × 50 μL), followed by 50 μL of 60% iPrOH and incubated with 50 μL Oil Red O solution (0.3% in 60% iPrOH) for 10 min to stain neutral lipids. The cells were washed quickly with 50 μL of 60% iPrOH and 2 × 50 μL of PBS. Microscopic images were taken using a 40x objective on a BZ-X810 microscope (KEYENCE, Frankfurt, Germany). Images were analyzed using ImageJ software (v1.54) according to a literature method.

In the case of CCN(C(=O)c1ccccc1)c1ccc(C(O)(C(F)(F)F)C(F)(F)F)cc1 [Compound 1, N-Ethyl-N-(4-[1,1,1,3,3,3-hexafluoro-2-hydroxypropan-2-yl]phenyl)benzamide], the FXR activity [1] is reported as “no activity; also recorded: did not affect”.
CS(=O)(=O)c1cccc(-c2ccc(CN(Cc3cccc(C(F)(F)F)c3Cl)CC(c3ccccc3)c3ccccc3)cc2)c1 [Compound 3, N-(2-Chloro-3-[trifluoromethyl]benzyl)-N-([3′-{methylsulfonyl}-{1,1′-biphenyl}-4-yl]methyl)-2,2-diphenylethan-1-amine] was tested, and the “lipolytic, antisteatotic activity” value [2] was “displayed lipolytic, antisteatotic activity; also recorded: stimulated lipolysis”.
